# Data reported in PubChem BioAssay (NCI).
#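 1) Cells in 96-well plates. 2) Compound, 48 h, 5 concentrations. 3) Linear interpolation between surrounding doses. 4) Unreached endpoint = highest concentration. GI50 marks 50% less growth. TGI denotes the concentration required for complete inhibition of growth.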
# What was measured:
# Assay in all cases: inhibition of tumour cell growth, NCI panel, 48 h
# RPMI-8226 leukemia = tested on: RPMI-8226 leukemia
# HT29 colon = tested on: HT29 colon
# OVCAR-8 ovarian = tested on: OVCAR-8 ovarian
# M14 melanoma = tested on: M14 melanoma
# U251 CNS = tested on: U251 CNS
# SK-OV-3 ovarian = tested on: SK-OV-3 ovarian
# CCRF-CEM leukemia = tested on: CCRF-CEM leukemia
# SN12C renal = tested on: SN12C renal
# CAKI-1 renal = tested on: CAKI-1 renal
# EKVX NSCLC = tested on: EKVX NSCLC
# OVCAR-4 ovarian = tested on: OVCAR-4 ovarian
# HS 578T breast = tested on: HS 578T breast
# RXF 393 renal = tested on: RXF 393 renal
# UO-31 renal = tested on: UO-31 renal
# SW-620 colon = tested on: SW-620 colon
# SF-268 CNS = tested on: SF-268 CNS
# NCI/ADR-RES ovarian = tested on: NCI/ADR-RES ovarian
# SK-MEL-2 melanoma = tested on: SK-MEL-2 melanoma
# COLO 205 colon = tested on: COLO 205 colon
# K-562 leukemia = tested on: K-562 leukemia
# OVCAR-5 ovarian = tested on: OVCAR-5 ovarian
# ACHN renal = tested on: ACHN renal
# IGROV1 ovarian = tested on: IGROV1 ovarian
# KM12 colon = tested on: KM12 colon
# HCC-2998 colon = tested on: HCC-2998 colon
# SF-539 CNS = tested on: SF-539 CNS
# MOLT-4 leukemia = tested on: MOLT-4 leukemia
# UACC-257 melanoma = tested on: UACC-257 melanoma
# SK-MEL-28 melanoma = tested on: SK-MEL-28 melanoma
# BT-549 breast = tested on: BT-549 breast
# SR leukemia = tested on: SR leukemia
# NCI-H460 lung = tested on: NCI-H460 lung
# T-47D breast = tested on: T-47D breast
# 786-0 renal = tested on: 786-0 renal
# MDA-MB-231 breast = tested on: MDA-MB-231 breast
# HCT-15 colon = tested on: HCT-15 colon
# LOX IMVI melanoma = tested on: LOX IMVI melanoma
# MALME-3M melanoma = tested on: MALME-3M melanoma
# HOP-62 NSCLC = tested on: HOP-62 NSCLC
# PC-3 prostate = tested on: PC-3 prostate
# SF-295 CNS = tested on: SF-295 CNS
# A549 NSCLC = tested on: A549 NSCLC
# OVCAR-3 ovarian = tested on: OVCAR-3 ovarian
# NCI-H23 lung = tested on: NCI-H23 lung
# HL-60(TB) leukemia = tested on: HL-60(TB) leukemia
# HOP-92 NSCLC = tested on: HOP-92 NSCLC
# MCF7 breast = tested on: MCF7 breast
# SNB-19 CNS = tested on: SNB-19 CNS
# HCT-116 colon = tested on: HCT-116 colon
# NCI-H226 lung = tested on: NCI-H226 lung
# A498 renal = tested on: A498 renal
# SNB-75 CNS = tested on: SNB-75 CNS
# SK-MEL-5 melanoma = tested on: SK-MEL-5 melanoma
# UACC-62 melanoma = tested on: UACC-62 melanoma
# TK-10 renal = tested on: TK-10 renal
smiles,measurement,setting,value
C[C@@H](Oc1cc(-n2cnc3ccc(OC[C@@H](O)CO)cc32)sc1C(N)=O)c1ccccc1Cl,GI50,RPMI-8226 leukemia,1530 nM
same,TGI,RPMI-8226 leukemia,> 25000 nM
same,GI50,HT29 colon,79.8 nM
same,TGI,HT29 colon,> 25000 nM
same,GI50,OVCAR-8 ovarian,109 nM
same,TGI,OVCAR-8 ovarian,> 25000 nM
same,GI50,M14 melanoma,99.3 nM
same,TGI,M14 melanoma,> 25000 nM
same,GI50,U251 CNS,126 nM
same,TGI,U251 CNS,> 25000 nM
same,GI50,SK-OV-3 ovarian,123 nM
same,TGI,SK-OV-3 ovarian,> 25000 nM
same,GI50,CCRF-CEM leukemia,12.7 nM
same,TGI,CCRF-CEM leukemia,24600 nM
same,GI50,SN12C renal,1080 nM
same,TGI,SN12C renal,> 25000 nM
same,GI50,CAKI-1 renal,12200 nM
same,TGI,CAKI-1 renal,> 25000 nM
same,GI50,EKVX NSCLC,1750 nM
same,TGI,EKVX NSCLC,> 25000 nM
same,GI50,OVCAR-4 ovarian,4150 nM
same,TGI,OVCAR-4 ovarian,> 25000 nM
same,GI50,HS 578T breast,171 nM
same,TGI,HS 578T breast,5310 nM
same,GI50,RXF 393 renal,65.3 nM
same,TGI,RXF 393 renal,2080 nM
same,GI50,UO-31 renal,8390 nM
same,TGI,UO-31 renal,> 25000 nM
same,GI50,SW-620 colon,63.3 nM
same,TGI,SW-620 colon,> 25000 nM
same,GI50,SF-268 CNS,164 nM
same,TGI,SF-268 CNS,> 25000 nM
same,GI50,NCI/ADR-RES ovarian,1640 nM
same,TGI,NCI/ADR-RES ovarian,> 25000 nM
same,GI50,SK-MEL-2 melanoma,4760 nM
same,TGI,SK-MEL-2 melanoma,11100 nM
same,GI50,COLO 205 colon,74.3 nM
same,TGI,COLO 205 colon,> 25000 nM
same,GI50,K-562 leukemia,80.4 nM
same,TGI,K-562 leukemia,> 25000 nM
same,GI50,OVCAR-5 ovarian,414 nM
same,TGI,OVCAR-5 ovarian,> 25000 nM
same,GI50,ACHN renal,6110 nM
same,TGI,ACHN renal,> 25000 nM
same,GI50,IGROV1 ovarian,214 nM
same,TGI,IGROV1 ovarian,> 25000 nM
same,GI50,KM12 colon,64.1 nM
same,TGI,KM12 colon,> 25000 nM
same,GI50,HCC-2998 colon,84.8 nM
same,TGI,HCC-2998 colon,> 25000 nM
same,GI50,SF-539 CNS,133 nM
same,TGI,SF-539 CNS,> 25000 nM
same,GI50,MOLT-4 leukemia,95 nM
same,TGI,MOLT-4 leukemia,7470 nM
same,GI50,UACC-257 melanoma,291 nM
same,TGI,UACC-257 melanoma,> 25000 nM
same,GI50,SK-MEL-28 melanoma,229 nM
same,TGI,SK-MEL-28 melanoma,> 25000 nM
same,GI50,BT-549 breast,194 nM
same,TGI,BT-549 breast,11100 nM
same,GI50,SR leukemia,74.3 nM
same,GI50,NCI-H460 lung,227 nM
same,TGI,NCI-H460 lung,> 25000 nM
same,GI50,T-47D breast,1220 nM
same,TGI,T-47D breast,> 25000 nM
same,GI50,786-0 renal,669 nM
same,TGI,786-0 renal,> 25000 nM
same,GI50,MDA-MB-231 breast,416 nM
same,TGI,MDA-MB-231 breast,> 25000 nM
same,GI50,HCT-15 colon,1880 nM
same,TGI,HCT-15 colon,> 25000 nM
same,GI50,LOX IMVI melanoma,93.1 nM
same,TGI,LOX IMVI melanoma,> 25000 nM
same,GI50,MALME-3M melanoma,7140 nM
same,TGI,MALME-3M melanoma,> 25000 nM
same,GI50,HOP-62 NSCLC,110 nM
same,TGI,HOP-62 NSCLC,> 25000 nM
same,GI50,PC-3 prostate,126 nM
same,TGI,PC-3 prostate,> 25000 nM
same,GI50,SF-295 CNS,318 nM
same,TGI,SF-295 CNS,> 25000 nM
same,GI50,A549 NSCLC,889 nM
same,TGI,A549 NSCLC,> 25000 nM
same,GI50,OVCAR-3 ovarian,49.1 nM
same,TGI,OVCAR-3 ovarian,176 nM
same,GI50,NCI-H23 lung,140 nM
same,TGI,NCI-H23 lung,> 25000 nM
same,GI50,HL-60(TB) leukemia,68.4 nM
same,TGI,HL-60(TB) leukemia,869 nM
same,GI50,HOP-92 NSCLC,765 nM
same,TGI,HOP-92 NSCLC,> 16400 nM
same,GI50,MCF7 breast,25 nM
same,TGI,MCF7 breast,> 25000 nM
same,GI50,SNB-19 CNS,339 nM
same,TGI,SNB-19 CNS,> 25000 nM
same,GI50,HCT-116 colon,116 nM
same,TGI,HCT-116 colon,> 25000 nM
same,GI50,NCI-H226 lung,2820 nM
same,TGI,NCI-H226 lung,> 25000 nM
same,GI50,A498 renal,148 nM
same,TGI,A498 renal,1200 nM
same,GI50,SNB-75 CNS,290 nM
same,TGI,SNB-75 CNS,4410 nM
same,GI50,SK-MEL-5 melanoma,326 nM
same,TGI,SK-MEL-5 melanoma,5140 nM
same,GI50,UACC-62 melanoma,107 nM
same,TGI,UACC-62 melanoma,> 25000 nM
same,GI50,TK-10 renal,894 nM
same,TGI,TK-10 renal,10700 nM
